# Measurements as given in publication PMC10683025, “Discovery of a Hydroxylamine-Based Brain-Penetrant EGFR Inhibitor for Metastatic Non-Small-Cell Lung Cancer” (Journal of Medicinal Chemistry, 2023).
# pIC50, pKd: −log10 of the molar value. Like-named read-outs stand apart in the source and are kept apart here.
# Key:
# EGFRwt = target: T1, EGFRwt (Homo sapiens, UniProt P00533); assay: KinaseProfiler enzymatic radiometric assay; assay type: biochemical; settings: wt, ATP 10 μM; read-out: EGFR IC50
# T1 construct: purchased Eurofins DiscoverX (contract assay)
# Method: (§4) In vitro kinase activity (inhibitor binding constants (Kd) and biochemical inhibition (IC50’s)) were assessed by Eurofins DiscoverX (Kd determinations) and Eurofins Cerep (biochemical IC50 determinations).
# Plasma stability [1] = assay type: in vitro ADME, human; settings: for Remaining Percentages / t1/2: human plasma; for t1/2: ∞ = no degradation
# In short: (§1)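 Compound at 5 μM incubated in human and Sprague-Dawley rat plasma, duplicates; samples at 0, 15, 30, 60 and 120 min analysed by LC-MS/MS. Percent remaining at each time from compound/control peak area ratio relative to the 0 min ratio.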
# MDCKII-MDR1 permeability = assay type: in vitro ADME, canine; settings: dog, MDCK-MDR1, MDCKII-MDR1
# Method: (§5) A 96-well HTS Transwell plate (Corning) was used for Caco-2 and MDCKII-MDR1 cell seeding. […] Plates were incubated at 37 °C for 2 h, and samples (50 μL) were taken at the beginning and end of the incubation in both the donor and acceptor wells with the assay run in duplicate (n = 2). Samples were analyzed by LC-MS/MS.
# (§6) The efflux ratio was determined by using the following equation: [drawing 4] where Papp (B–A) indicates the apparent permeability in the basolateral to apical direction and Papp (A–B) indicates the apparent permeability in the apical to basolateral direction.
# MDR1 = assay: MDCKII-MDR1 permeability; assay type: in vitro ADME, canine; settings: dog, MDCK-MDR1
# Method: as §5, §6
# [2] = Plasma protein binding by equilibrium dialysis; assay type: in vitro ADME, mouse
# Method: Plasma protein binding and brain tissue binding were determined by Pharmaron, Inc. using the equilibrium dialysis method. […] Following incubation, the samples were analyzed by LC-MS/MS and the concentrations of the compounds were determined in the buffer and plasma solution chambers.
# [3] = Metabolic stability in liver microsomes; assay type: in vitro ADME, human; settings: for Remaining Percentage: human LM; for half-life at 1 h, 1 µM / microsomal CLint at 1 h, 1 µM: human, liver microsomes; for half-life at 1 h, 1 µM: read-out: LM t1/2; for microsomal CLint at 1 h, 1 µM: read-out: LMClint
# Method: (§7) Microsome stability was assessed in duplicate (n = 2) in the presence and absence of nicotinamide adenine dinucleotide phosphate (NADPH) with liver microsomes (0.5 mg/mL) from human (BD Gentest) and Sprague-Dawley rats (BD Gentest). Compounds were incubated in liver microsomes at 1 μM and samples (30 μL) were taken at 0.5, 15, 30, 45, and 60 min time points for analysis by LC-MS/MS. Hepatocyte stability was assessed in duplicate (n = 2) at a working cell density of 0.5 × 10^6 cells/mL with hepatocytes from human (BiolVT), Sprague-Dawley rat (BiolVT), cynomolgus monkey (RILD) or beagle dog (BiolVT). […] The in vitro half-life and intrinsic clearances were determined as previously described.[76]
# (§8) In vitro half-life (in vitro t1/2) was determined from the slope value in [drawing 1] where k was determined by linear regression of the natural logarithm of the remaining percentage of the parent drug vs the incubation time curve.
# [4] = tested on: Ba/F3 EGFR-L858R/C797S cells; assay: CellTiter-Glo cell viability assay; assay type: cell-based; settings: Mus musculus, BaF3; 72 h, unadjusted for FBS
# Method: (§2) The A431, HCC827, SK-BR-3, ZR-75–30, AU565, and Caco-2 cell lines were obtained from ATCC. The NCI-H1975 cell line was obtained from SIBS. The NCI-H3255 cell line was obtained from CoBioer. Engineered Ba/F3 cell lines were obtained from Crown Bioscience. MCKII-MDR1 cells were obtained from The Netherlands Cancer Institute. HEK293 cells were obtained from Invitrogen. A431 cells were cultured in DMEM (Life Technologies) with 10% FBS. HCC827, NCI-H1975, and AU565 cells were cultured in RPMI1640 (Invitrogen) with 10% FBS. NCI-H3255 cells were cultured in BEGM (Lonza) with 10% FBS. Ba/F3 EGFR-del E746_A750/C797S and Ba/F3 EGFR-L858R/C797S cells were cultured in RPMI (Invitrogen) with 10% FBS. SK-BR-3 cells were cultured in McCoy’s 5a (Invitrogen) with 10% FBS. ZR-75-30 cells were cultured in RPMI1640 (Invitrogen) with 20% FBS. Caco-2 and MCKII-MDR1 culture information is given in the Permeability Studies section. HEK293 cells were cultured in DMEM (Gibco) with 10% FBS, 0.1 mM NEAA, 25 mM HEPES, 100 U/mL penicillin-streptomycin, μg/mL blasticidin, and 400 μg/mL Geneticin. All cells were cultured in a humidified incubator with 5% CO2 at 37 °C.
# (§3) Viability assays using A431, HCC827, NCI-H1975, NCI-H3255, Ba/F3 EGFR-del E746_A750/C797S, Ba/F3 EGFR-L858R/C797S, AU565, SK-BR-3, and ZR-75-30 cells were performed at Crown BioScience. Cells were plated into 96-well plates at 1500–7000 cells per well and dosed in triplicate (n = 3) in a nine-point, 4-fold dilution series with compounds (0.15 nM to 10 μM) in DMSO and incubated for 72 h. After 72 h, cell viability was assayed by CellTiter-Glo Luminescent Viability Assay (Promega). Dose–response curves were generated and used to calculate the IC50 values which were calculated on GraphPad Prism from the nonlinear regression equation fitted with a sigmoidal dose response and are presented as mean ± SEM.
# [5] = tested on: Ba/F3 EGFR-del E746_A750/C797S cells; assay: CellTiter-Glo cell viability assay; assay type: cell-based; settings: Mus musculus, BaF3; 72 h, unadjusted for FBS
# Method: as §2, §3
# [6] = Metabolic stability in hepatocytes; assay type: in vitro ADME, Sprague-Dawley rat; settings: for hepatocyte CLint at 2 h, 1 µM / half-life at 2 h, 1 µM: Sprague-Dawley, rat, hepatocytes; for half-life at 2 h, 1 µM: read-out: HEP t1/2; for Remaining Percentages: rat hepatocytes
# Method: as §7, §8
# EGFRL858R = EGFRL858R (Homo sapiens, UniProt P00533, L858R); assay: KINOMEScan KdELECT Kd determination; assay type: binding; parameters: purchased Eurofins DiscoverX (contract assay); settings: L858R
# Method: as §4
# Plasma stability [7] = assay type: in vitro ADME, Sprague-Dawley rat; settings: for Remaining Percentages / t1/2: rat plasma; for t1/2: ∞ = no degradation
# In short: as §1
# [8] = In vitro metabolite identification; assay type: in vitro ADME; settings: rat hepatocytes, 10 μM
# YSK4 = target: T2, YSK4 (Homo sapiens, UniProt Q56UN5); assay: KINOMEScan; assay type: binding; settings: YSK4, 1 µM; read-out: Percent Control
# T2 construct: purchased Eurofins DiscoverX (KINOMEScan service)
# BRAF = target: T3, BRAF (Homo sapiens, UniProt P15056); assay: KINOMEScan; assay type: binding; settings: read-out: Percent Control
# T3 construct: purchased Eurofins DiscoverX (KINOMEscan)
# Excerpt: (§9) Percent control was mapped onto the kinome tree using TREEspot.
# [9] = target: T4, ABL1(H396P)-phosphorylated (Homo sapiens, UniProt P00519, H396P); assay: KINOMEScan; assay type: binding; settings: read-out: Percent Control
# T4 construct: purchased Eurofins DiscoverX
# Excerpt: as §9
# [10] = CD-1, mouse, mouse plasma, read-out: %Bound (converted)
# [11] = CD-1, plasma, mouse, 5 μM, read-out: fu,plasma% / %Unbound
# T1 sequence (P00533 25-1210): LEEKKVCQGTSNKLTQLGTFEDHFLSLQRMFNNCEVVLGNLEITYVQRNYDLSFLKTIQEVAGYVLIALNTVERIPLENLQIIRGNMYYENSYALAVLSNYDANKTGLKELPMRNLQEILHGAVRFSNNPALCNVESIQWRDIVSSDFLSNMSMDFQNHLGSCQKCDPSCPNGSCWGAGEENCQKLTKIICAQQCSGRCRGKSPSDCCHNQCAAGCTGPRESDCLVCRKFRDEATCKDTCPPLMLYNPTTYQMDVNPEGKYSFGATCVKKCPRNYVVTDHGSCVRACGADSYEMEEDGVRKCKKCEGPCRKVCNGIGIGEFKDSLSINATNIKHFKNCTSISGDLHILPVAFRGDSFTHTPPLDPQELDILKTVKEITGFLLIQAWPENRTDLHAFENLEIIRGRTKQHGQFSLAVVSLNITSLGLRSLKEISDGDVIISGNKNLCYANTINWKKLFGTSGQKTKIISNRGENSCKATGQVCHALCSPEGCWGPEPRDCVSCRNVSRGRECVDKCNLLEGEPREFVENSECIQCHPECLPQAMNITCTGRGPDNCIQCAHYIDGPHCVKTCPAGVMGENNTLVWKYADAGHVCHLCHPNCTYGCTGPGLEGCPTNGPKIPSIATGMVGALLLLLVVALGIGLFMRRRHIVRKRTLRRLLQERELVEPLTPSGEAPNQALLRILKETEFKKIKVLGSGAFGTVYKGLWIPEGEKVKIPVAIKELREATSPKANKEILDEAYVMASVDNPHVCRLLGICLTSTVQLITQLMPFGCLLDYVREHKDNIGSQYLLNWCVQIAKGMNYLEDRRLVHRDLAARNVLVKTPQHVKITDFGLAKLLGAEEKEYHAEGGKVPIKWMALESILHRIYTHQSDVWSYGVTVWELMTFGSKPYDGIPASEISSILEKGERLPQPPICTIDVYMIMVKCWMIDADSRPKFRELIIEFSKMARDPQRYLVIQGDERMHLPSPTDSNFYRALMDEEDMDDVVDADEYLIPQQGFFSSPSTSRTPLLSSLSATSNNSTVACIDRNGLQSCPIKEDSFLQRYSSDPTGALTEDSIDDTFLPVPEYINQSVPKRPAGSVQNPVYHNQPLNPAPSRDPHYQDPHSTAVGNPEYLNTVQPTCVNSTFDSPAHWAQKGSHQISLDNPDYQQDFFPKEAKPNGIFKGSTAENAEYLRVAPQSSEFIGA
# Chain of EGFRL858R (P00533 25-1210 L858R): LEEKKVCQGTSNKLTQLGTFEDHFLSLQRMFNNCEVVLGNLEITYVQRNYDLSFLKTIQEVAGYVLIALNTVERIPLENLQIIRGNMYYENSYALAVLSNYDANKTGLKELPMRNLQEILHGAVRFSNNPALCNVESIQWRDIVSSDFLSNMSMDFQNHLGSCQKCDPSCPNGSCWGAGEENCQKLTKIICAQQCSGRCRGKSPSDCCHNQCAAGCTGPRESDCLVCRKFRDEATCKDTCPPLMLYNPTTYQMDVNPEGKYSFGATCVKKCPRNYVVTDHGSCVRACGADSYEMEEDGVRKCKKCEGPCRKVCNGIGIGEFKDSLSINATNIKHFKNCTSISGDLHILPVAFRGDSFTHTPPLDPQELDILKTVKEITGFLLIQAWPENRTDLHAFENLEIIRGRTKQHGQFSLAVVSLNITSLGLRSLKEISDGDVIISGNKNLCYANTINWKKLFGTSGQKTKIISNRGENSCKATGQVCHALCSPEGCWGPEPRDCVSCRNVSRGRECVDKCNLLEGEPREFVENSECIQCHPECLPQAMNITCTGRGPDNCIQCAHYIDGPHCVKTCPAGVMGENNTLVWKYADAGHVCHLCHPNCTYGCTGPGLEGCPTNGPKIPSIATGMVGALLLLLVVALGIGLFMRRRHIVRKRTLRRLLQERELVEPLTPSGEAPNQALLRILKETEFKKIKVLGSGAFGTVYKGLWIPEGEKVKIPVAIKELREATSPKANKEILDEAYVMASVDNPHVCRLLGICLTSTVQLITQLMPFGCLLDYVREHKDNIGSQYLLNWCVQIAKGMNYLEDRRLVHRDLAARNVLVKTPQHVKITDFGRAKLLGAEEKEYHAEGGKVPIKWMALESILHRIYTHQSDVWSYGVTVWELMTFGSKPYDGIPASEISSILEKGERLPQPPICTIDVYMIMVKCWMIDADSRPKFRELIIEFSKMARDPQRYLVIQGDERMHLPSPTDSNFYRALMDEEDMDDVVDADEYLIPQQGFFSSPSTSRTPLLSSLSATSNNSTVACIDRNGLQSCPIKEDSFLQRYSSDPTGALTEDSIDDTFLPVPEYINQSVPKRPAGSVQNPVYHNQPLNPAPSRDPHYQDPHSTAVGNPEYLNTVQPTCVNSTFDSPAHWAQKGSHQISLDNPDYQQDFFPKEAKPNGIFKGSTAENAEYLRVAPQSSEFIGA
# T3 sequence (P15056 whole entry): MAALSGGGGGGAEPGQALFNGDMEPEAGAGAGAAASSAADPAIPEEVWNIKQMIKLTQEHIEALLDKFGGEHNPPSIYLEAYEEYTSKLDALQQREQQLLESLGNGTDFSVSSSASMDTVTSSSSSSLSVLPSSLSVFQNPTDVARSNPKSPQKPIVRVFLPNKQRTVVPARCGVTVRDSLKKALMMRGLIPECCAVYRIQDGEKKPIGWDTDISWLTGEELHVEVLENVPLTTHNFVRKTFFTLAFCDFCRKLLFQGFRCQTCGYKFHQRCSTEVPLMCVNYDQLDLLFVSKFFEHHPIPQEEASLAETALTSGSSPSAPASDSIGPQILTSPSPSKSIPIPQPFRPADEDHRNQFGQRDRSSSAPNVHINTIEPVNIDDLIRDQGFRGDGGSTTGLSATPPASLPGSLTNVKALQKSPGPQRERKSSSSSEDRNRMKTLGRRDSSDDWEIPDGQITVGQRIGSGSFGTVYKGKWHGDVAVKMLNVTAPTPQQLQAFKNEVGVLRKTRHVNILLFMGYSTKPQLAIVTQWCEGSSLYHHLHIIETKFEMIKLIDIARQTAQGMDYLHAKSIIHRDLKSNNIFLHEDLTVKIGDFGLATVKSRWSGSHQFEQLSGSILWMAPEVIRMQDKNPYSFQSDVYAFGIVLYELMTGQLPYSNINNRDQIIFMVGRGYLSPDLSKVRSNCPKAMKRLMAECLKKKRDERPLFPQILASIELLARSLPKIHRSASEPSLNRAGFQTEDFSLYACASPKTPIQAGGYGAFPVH
# T2 sequence (Q56UN5 whole entry): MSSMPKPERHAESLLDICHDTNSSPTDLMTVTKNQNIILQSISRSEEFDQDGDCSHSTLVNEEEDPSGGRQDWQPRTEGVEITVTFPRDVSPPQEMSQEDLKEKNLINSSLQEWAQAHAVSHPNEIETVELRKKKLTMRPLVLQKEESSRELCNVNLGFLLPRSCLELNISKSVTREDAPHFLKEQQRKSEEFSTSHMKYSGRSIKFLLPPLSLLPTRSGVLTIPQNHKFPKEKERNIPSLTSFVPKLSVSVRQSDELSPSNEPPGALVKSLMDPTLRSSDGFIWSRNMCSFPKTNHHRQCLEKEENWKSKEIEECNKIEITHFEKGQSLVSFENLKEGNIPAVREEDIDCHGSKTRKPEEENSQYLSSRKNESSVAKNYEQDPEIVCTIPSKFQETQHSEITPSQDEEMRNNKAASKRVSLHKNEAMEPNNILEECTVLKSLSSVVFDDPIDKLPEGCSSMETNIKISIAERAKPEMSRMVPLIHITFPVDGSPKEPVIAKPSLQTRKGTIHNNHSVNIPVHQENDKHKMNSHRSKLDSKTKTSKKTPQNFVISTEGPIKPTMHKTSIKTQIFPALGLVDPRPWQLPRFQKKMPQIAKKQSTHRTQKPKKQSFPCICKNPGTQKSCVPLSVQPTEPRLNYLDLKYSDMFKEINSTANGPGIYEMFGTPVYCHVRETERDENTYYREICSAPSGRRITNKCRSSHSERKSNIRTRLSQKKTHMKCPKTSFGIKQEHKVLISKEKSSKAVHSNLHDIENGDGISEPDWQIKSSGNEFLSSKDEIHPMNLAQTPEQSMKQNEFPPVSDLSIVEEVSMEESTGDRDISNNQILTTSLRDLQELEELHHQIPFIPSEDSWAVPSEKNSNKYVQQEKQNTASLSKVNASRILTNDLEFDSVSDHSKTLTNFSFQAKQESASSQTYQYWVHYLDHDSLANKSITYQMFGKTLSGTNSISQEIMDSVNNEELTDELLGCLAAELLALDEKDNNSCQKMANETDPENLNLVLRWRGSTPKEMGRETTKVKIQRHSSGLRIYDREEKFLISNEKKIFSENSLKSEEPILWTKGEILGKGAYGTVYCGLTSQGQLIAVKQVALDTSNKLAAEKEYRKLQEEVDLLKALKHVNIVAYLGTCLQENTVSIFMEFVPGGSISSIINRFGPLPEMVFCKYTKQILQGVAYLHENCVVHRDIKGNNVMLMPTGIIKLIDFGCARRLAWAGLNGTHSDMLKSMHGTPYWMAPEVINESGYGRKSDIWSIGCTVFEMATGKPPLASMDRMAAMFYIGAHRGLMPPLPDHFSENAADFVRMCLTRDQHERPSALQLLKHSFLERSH
smiles,measurement,setting,value
"COc1cc2ncnc(Nc3cccc(Cl)c3F)c2cc1OCCON1CCOCC1 [Compound 7, N-(3-Chloro-2-fluorophenyl)-7-methoxy-6-(2-(morpholinooxy)ethoxy)quinazolin-4-amine]",pIC50,EGFRwt,8.52
same,Remaining Percentages,Plasma stability [1]; 15 min,100.68%
same,Remaining Percentages,Plasma stability [1]; 30 min,93.61%
same,Remaining Percentages,Plasma stability [1]; 60 min,100.91%
same,Remaining Percentages,Plasma stability [1]; 120 min,97.91%
same,t1/2,Plasma stability [1],∞
same,"recovery at 2 h, 1 μM",MDCKII-MDR1 permeability; read-out: Recovery% (AP-BL),73.5%
same,"recovery at 2 h, 1 μM",MDCKII-MDR1 permeability; read-out: Recovery% (BL-AP),76.4%
same,"efflux ratio at 2 h, 1 µM",MDR1,1.1
same,"efflux ratio at 2 h, 1 μM",MDR1,1.06
same,"Papp A→B at 2 h, 1 µM",MDR1,12.6 ×10⁻⁶ cm/s
same,"Papp A→B at 2 h, 1 μM",MDR1,12.6 ×10⁻⁶ cm/s
same,"Papp B→A at 2 h, 1 µM",MDR1,13.3 ×10⁻⁶ cm/s
same,"Papp B→A at 2 h, 1 μM",MDR1,13.3 ×10⁻⁶ cm/s
same,"recovery at 6 h, 5 μM","[2]; CD-1, mouse, mouse plasma",98.4%
same,"remaining at 6 h, 5 μM","[2]; CD-1, mouse, mouse plasma",102%
same,"fraction unbound at 6 h, 5 μM",[2]; [10],0.0665
same,"fraction unbound at 6 h, 5 μM",[2]; [11],0.0665
same,Remaining Percentage,"[3]; +Cofactors, 15 min",43.79%
same,Remaining Percentage,"[3]; +Cofactors, 30 min",21.93%
same,Remaining Percentage,"[3]; +Cofactors, 45 min",10.84%
same,Remaining Percentage,"[3]; +Cofactors, 60 min",7.20%
same,Remaining Percentage,"[3]; -Cofactors, 60 min",87.34%
same,"half-life at 1 h, 1 µM",[3],14 min
same,"microsomal CLint at 1 h, 1 µM",[3],99 µL/min/mg
same,pIC50,[4],8.30
same,pIC50,[5],8.60
same,"hepatocyte CLint at 2 h, 1 µM",[6],126 µL/min/1e6 cells
same,"half-life at 2 h, 1 µM",[6],11 min
same,Remaining Percentages,[6]; 15 min,38.18%
same,Remaining Percentages,[6]; 30 min,15.61%
same,Remaining Percentages,[6]; 60 min,2.48%
same,Remaining Percentages,[6]; 90 min,0.92%
same,Remaining Percentages,[6]; 120 min,0.74%
same,pKd,EGFRL858R,> 9.70
same,Remaining Percentages,Plasma stability [7]; 15 min,91.34%
same,Remaining Percentages,Plasma stability [7]; 30 min,93.84%
same,Remaining Percentages,Plasma stability [7]; 60 min,93.29%
same,Remaining Percentages,Plasma stability [7]; 120 min,95.67%
same,t1/2,Plasma stability [7],∞
"COc1cc2ncnc(Nc3cccc(Cl)c3F)c2cc1OCCON1CCN(C)CC1 [Compound 9, N-(3-Chloro-2-fluorophenyl)-7-methoxy-6-(2-((4-methylpiperazin-1-yl)oxy)ethoxy)quinazolin-4-amine]",pIC50,EGFRwt,8.52
same,Remaining Percentages,Plasma stability [1]; 15 min,93.43%
same,Remaining Percentages,Plasma stability [1]; 30 min,92.26%
same,Remaining Percentages,Plasma stability [1]; 60 min,97.47%
same,Remaining Percentages,Plasma stability [1]; 120 min,92.38%
same,t1/2,Plasma stability [1],∞
same,remaining at 5 μM,"Plasma stability [1]; human, plasma",> 90%
same,"recovery at 2 h, 1 μM",MDCKII-MDR1 permeability; read-out: Recovery% (AP-BL),68.6%
same,"recovery at 2 h, 1 μM",MDCKII-MDR1 permeability; read-out: Recovery% (BL-AP),90%
same,"efflux ratio at 2 h, 1 µM",MDR1,0.9
same,"efflux ratio at 2 h, 1 μM",MDR1,0.92
same,"Papp A→B at 2 h, 1 µM",MDR1,9.8 ×10⁻⁶ cm/s
same,"Papp A→B at 2 h, 1 μM",MDR1,9.82 ×10⁻⁶ cm/s
same,"Papp B→A at 2 h, 1 µM",MDR1,9.1 ×10⁻⁶ cm/s
same,"Papp B→A at 2 h, 1 μM",MDR1,9.06 ×10⁻⁶ cm/s
same,share of parent/metabolite after incubation of 9,[8],1.11%
same,"recovery at 6 h, 5 μM","[2]; CD-1, mouse, mouse plasma",95.4%
same,"remaining at 6 h, 5 μM","[2]; CD-1, mouse, mouse plasma",92.9%
same,"fraction unbound at 6 h, 5 μM",[2]; [10],0.0702
same,"fraction unbound at 6 h, 5 µM",[2]; [11],0.07
same,"fraction unbound at 6 h, 5 μM",[2]; [11],0.0702
same,remaining binding at 1 µM,YSK4,46%
same,remaining binding at 1 µM,BRAF,89%
same,Remaining Percentage,"[3]; +Cofactors, 15 min",69.65%
same,Remaining Percentage,"[3]; +Cofactors, 30 min",46.26%
same,Remaining Percentage,"[3]; +Cofactors, 45 min",31.49%
same,Remaining Percentage,"[3]; +Cofactors, 60 min",26.65%
same,Remaining Percentage,"[3]; -Cofactors, 60 min",109.86%
same,"half-life at 1 h, 1 µM",[3],30 min
same,"microsomal CLint at 1 h, 1 µM",[3],46 µL/min/mg
same,pIC50,[4],8.34
same,pIC50,[5],8.60
same,remaining binding at 1 µM,[9],6.6%
same,"hepatocyte CLint at 2 h, 1 µM",[6],70 µL/min/1e6 cells
same,"half-life at 2 h, 1 µM",[6],19.7 min
same,Remaining Percentages,[6]; 15 min,47.58%
same,Remaining Percentages,[6]; 30 min,28.51%
same,Remaining Percentages,[6]; 60 min,11.71%
same,Remaining Percentages,[6]; 90 min,4.98%
same,Remaining Percentages,[6]; 120 min,2.53%
same,pKd,EGFRL858R,> 9.70
same,remaining at 5 μM,"Plasma stability [7]; Sprague-Dawley, rat, plasma",> 90%
same,Remaining Percentages,Plasma stability [7]; 15 min,96.53%
same,Remaining Percentages,Plasma stability [7]; 30 min,95.56%
same,Remaining Percentages,Plasma stability [7]; 60 min,99.37%
same,Remaining Percentages,Plasma stability [7]; 120 min,96.60%
same,t1/2,Plasma stability [7],∞
